Assay results published in ChEMBL document CHEMBL4145579, “Plasmodial Kinase Inhibitors: License to Cure?” (J Med Chem, 2018).
pEC50, pIC50, pKi: −log10 of the molar value.

How the values were obtained:
[1] = target: T1, Calcium-dependent protein kinase 1 (Plasmodium falciparum, UniProt P62344); test: Inhibition of Plasmodium falciparum recombinant His-tagged CDPK1 expressed in Escherichia coli BL21(DE3) after 1 hr in presence of [gamma33P]ATP by scintillation proximity assay
[2] = target: Cyclin-dependent kinase 5/CDK5 activator 1 (Homo sapiens) (UniProt Q00535+Q15078); test: Inhibition of recombinant human N-terminal His6-tagged full length CDK5/recombinant human N-terminal GST-tagged full length p25 at 10 uM; type: protein-complex assay
[3] = Inhibition of recombinant Plasmodium vivax PI4K
[4] = system: Plasmodium falciparum; test: Antiplasmodial activity drug-sensitive Plasmodium falciparum 3D7 infected in po dosed humanized SCID mouse assessed as decrease in blood parasitemia administered once daily for 4 days measure on day 7 by flow cytometric method; type: functional
[5] = system: Plasmodium berghei; test: Antiplasmodial activity Plasmodium berghei infected in po dosed mouse; type: functional
[6] = target: T1, Calcium-dependent protein kinase 1; test: Inhibition of Plasmodium falciparum recombinant CDPK1 expressed in Escherichia coli expression system after 1 hr in presence of [gamma33P]ATP by scintillation proximity assay
[7] = Inhibition of Plasmodium falciparum PKG
[8] = system: Plasmodium falciparum; test: Antiplasmodial activity against mature gametocytes of Plasmodium falciparum 3D7 […]; type: functional, organism-based
[9] = system: Plasmodium falciparum; test: Antiplasmodial activity against chloroquine-sensitive Plasmodium falciparum D6 infected in human red blood cells preincubated for 24 hrs followed by [3H]-hypoxanthine addition measured after 18 hrs by scintillation counting; type: functional, organism-based
[10] = Inhibition of Plasmodium falciparum 3D7 6xHis-tagged PI3K helica domain expressed in Escherichia coli by Western blot analysis
[11] = system: Plasmodium falciparum; test: Antiplasmodial activity against Plasmodium falciparum NF54; type: functional, organism-based
[12] = system: Plasmodium berghei; test: Antiplasmodial activity Plasmodium berghei infected in ip dosed mouse; type: functional
[13] = target: Mitogen-activated protein kinase 14 (Homo sapiens) (UniProt Q16539); test: Inhibition of recombinant human N-terminal GST-tagged full length SAPK2alpha expressed in Escherichia coli at 10 uM
[14] = target: Fibroblast growth factor receptor 1 (Homo sapiens) (UniProt P11362); test: Inhibition of recombinant human N-terminal GST-tagged FGFR1 (456 to 765 residues) expressed in Escherichia coli at 10 uM
[15] = system: Plasmodium falciparum; test: Antiplasmodial activity against mature gametocytes of Plasmodium falciparum NF54 […] by standard membrane feeding assay; type: functional, organism-based
[16] = system: Plasmodium falciparum; test: Antiplasmodial activity against Plasmodium falciparum infected in CD1 mouse at 100 mg/kg, po bid for 4 days; type: functional
[17] = target: T2, Calcium-dependent protein kinase 4 (Plasmodium falciparum (isolate 3D7), UniProt Q8IBS5); test: Inhibition of Plasmodium falciparum His-tagged CDPK4 expressed in Escherichia coli BL21(DE3) using […] as substrate after 10 mins in presence of ATP
T2 sequence (Q8IBS5 whole entry): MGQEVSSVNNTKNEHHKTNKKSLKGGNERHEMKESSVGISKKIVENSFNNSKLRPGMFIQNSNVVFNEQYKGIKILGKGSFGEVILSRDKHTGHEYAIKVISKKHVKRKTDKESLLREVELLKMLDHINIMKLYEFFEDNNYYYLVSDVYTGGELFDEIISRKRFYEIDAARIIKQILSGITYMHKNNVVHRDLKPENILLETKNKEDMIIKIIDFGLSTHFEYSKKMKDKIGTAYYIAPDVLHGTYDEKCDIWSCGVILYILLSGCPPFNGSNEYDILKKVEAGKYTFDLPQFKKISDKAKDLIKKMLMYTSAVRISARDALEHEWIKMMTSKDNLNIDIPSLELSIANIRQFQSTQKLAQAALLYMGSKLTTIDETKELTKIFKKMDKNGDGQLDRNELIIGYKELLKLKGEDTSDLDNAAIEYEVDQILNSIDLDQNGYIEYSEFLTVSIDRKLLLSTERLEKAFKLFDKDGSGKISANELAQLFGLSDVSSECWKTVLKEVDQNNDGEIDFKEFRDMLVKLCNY

[18] = system: Plasmodium falciparum; test: Antiplasmodial activity against Plasmodium falciparum FCB infected in human erythrocytes after 30 mins by FACS analysis; type: functional, organism-based; conditions: 0.5 h
[19] = system: Plasmodium falciparum; test: Inhibition of Plasmodium falciparum NF54 exflagellation measured on day 15 post parasite growth; type: functional, organism-based; conditions: NF54, 360 h
[20] = system: Plasmodium falciparum; test: Antiplasmodial activity against chloroquine-sensitive Plasmodium falciparum Dd2 gametocyte form infected in human erythrocytes by scintillation counting-based [3H]-hypoxanthine incorporation assay; type: functional, organism-based
[21] = Inhibition of Plasmodium falciparum recombinant expressed in Toxoplasma gondii after 60 mins in presence of [33P]ATP by scintillation counting
[22] = system: Plasmodium falciparum; test: Antiplasmodial activity against Plasmodium falciparum NF54 gametocyte form infected in human erythrocytes by scintillation counting-based [3H]-hypoxanthine incorporation assay; type: functional, organism-based

T1 sequence (P62344 whole entry): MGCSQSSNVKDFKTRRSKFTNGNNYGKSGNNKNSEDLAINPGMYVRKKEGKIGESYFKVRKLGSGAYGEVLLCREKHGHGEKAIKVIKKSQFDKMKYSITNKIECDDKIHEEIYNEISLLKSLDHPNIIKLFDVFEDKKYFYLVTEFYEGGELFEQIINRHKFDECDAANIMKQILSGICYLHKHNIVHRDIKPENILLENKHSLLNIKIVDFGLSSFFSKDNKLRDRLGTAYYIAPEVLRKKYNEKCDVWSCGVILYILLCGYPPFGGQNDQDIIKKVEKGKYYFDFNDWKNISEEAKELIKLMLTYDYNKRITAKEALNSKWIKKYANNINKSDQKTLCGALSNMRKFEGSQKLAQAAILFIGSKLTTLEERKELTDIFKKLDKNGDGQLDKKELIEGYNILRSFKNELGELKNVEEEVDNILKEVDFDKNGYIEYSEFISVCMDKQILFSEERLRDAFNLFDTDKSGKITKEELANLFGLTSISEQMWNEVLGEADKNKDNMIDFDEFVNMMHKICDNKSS
Cyclin-dependent kinase 5/CDK5 activator 1 (Homo sapiens), sequence (Q00535 whole entry): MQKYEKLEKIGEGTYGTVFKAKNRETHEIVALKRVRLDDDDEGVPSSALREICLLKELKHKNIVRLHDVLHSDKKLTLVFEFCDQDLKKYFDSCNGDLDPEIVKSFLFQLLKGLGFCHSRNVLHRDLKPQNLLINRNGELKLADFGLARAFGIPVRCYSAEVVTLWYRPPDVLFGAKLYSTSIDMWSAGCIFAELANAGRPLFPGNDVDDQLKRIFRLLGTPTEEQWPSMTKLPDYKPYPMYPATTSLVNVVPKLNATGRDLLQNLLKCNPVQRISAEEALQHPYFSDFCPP
Cyclin-dependent kinase 5/CDK5 activator 1 (Homo sapiens), sequence (Q15078 99-307 partner limits assumed): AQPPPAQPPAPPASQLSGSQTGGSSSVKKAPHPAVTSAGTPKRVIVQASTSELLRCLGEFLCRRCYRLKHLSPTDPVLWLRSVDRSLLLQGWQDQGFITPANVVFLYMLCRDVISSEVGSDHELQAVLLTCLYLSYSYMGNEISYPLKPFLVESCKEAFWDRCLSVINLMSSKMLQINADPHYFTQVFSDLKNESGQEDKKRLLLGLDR
Mitogen-activated protein kinase 14 (Homo sapiens), sequence (Q16539 whole entry, the tested form may be a part): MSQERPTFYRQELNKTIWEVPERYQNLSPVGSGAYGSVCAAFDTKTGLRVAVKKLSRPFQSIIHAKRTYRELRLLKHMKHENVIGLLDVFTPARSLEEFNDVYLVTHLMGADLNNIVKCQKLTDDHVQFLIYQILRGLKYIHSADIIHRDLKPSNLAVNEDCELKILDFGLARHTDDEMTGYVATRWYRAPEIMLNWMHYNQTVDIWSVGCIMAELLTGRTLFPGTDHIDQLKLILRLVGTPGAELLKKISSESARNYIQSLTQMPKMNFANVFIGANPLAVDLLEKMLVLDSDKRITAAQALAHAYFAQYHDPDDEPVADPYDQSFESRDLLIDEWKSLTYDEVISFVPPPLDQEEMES
Fibroblast growth factor receptor 1 (Homo sapiens), sequence (P11362 22-822 limits assumed): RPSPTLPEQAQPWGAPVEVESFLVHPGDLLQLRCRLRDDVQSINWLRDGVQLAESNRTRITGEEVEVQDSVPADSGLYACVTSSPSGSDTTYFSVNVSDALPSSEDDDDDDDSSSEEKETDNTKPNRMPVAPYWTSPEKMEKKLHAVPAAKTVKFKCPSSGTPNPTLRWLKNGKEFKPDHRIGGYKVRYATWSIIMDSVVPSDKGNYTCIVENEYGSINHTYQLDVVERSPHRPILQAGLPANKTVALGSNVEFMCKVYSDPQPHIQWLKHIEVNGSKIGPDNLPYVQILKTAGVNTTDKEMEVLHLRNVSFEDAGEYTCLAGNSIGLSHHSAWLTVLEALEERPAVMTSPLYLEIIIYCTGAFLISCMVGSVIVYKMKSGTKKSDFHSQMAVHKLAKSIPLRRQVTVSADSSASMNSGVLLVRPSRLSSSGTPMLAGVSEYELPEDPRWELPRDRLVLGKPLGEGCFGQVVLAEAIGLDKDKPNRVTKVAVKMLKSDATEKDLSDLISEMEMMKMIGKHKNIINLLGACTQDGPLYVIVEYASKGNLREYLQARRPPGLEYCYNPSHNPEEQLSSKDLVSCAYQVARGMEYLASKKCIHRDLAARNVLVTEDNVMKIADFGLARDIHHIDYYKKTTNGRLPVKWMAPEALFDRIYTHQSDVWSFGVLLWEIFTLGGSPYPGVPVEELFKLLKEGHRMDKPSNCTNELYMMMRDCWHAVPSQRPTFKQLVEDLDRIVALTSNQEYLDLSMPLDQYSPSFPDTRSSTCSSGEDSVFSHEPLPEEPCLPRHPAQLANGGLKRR

CCCNc1ccc2ncc(-c3cccc(O)c3)n2n1
pKi [1]: 7.43 | inhibition [2]: 89%

CS(=O)(=O)c1ccc(-c2cnc(N)c(-c3ccc(C(F)(F)F)nc3)c2)cc1 [MMV-048]
pIC50 [3]: 8.47 | ED90 [4]: 0.57 mg/kg | ED90 [5]: 0.8 mg/kg

N[C@H]1CC[C@H](Nc2nc(Nc3ccc(C(=O)N4CCCCC4)cc3)c3ncn(-c4cccc(F)c4)c3n2)CC1 [PURFALCAMINE]
pIC50 [6]: 7.77 to 7.89

CN(C)Cc1ccn2c(-c3ccnc(NCC4CC4)n3)c(-c3cccc(S(C)(=O)=O)c3)nc2c1
pIC50 [7]: 9.89 | pIC50 [8]: 6.99

O=C1Nc2ccc(Br)cc2/C1=C\C(=O)c1ccc(F)cc1
pIC50 [9]: < 4.85

O=c1cc(N2CCOCC2)oc2c(-c3ccccc3)cccc12 [LY-294002]
pIC50 [10]: 4.60 | pIC50 [11]: 5.52

C[C@H]1[C@@H](O)O[C@@H]2O[C@@]3(C)CC[C@H]4[C@H](C)CC[C@@H]1[C@@]24OO3 [ARTENIMOL]
ED50 [12]: 1.95 mg/kg | pIC50 [10]: 8.39 | pIC50 [11]: 8.52

COc1cc(-c2cc(-c3ccc(S(C)(=O)=O)cc3)cnc2N)ccc1O
pIC50 [3]: 8.00 | ED90 [5]: 43.7 mg/kg

Cc1ccc(C(=O)c2c(N)c(C(N)=O)c3ccccn23)cc1
pKi [1]: 6.58 | inhibition [13]: 75% | inhibition [14]: 54%

Cc1cn2c(-c3ccnc(NCC4CC4)n3)c(-c3ccc(F)c(NS(C)(=O)=O)c3)nc2cc1CN(C)C
pIC50 [7]: 9.80 | pIC50 [15]: 7.39 | pIC50 [8]: 8.68 | Activity [16]: 99.9%

CN1CCN(CCCN2c3ccccc3Sc3ccc(C(F)(F)F)cc32)CC1 [TRIFLUOPERAZINE]
pKi [17]: 3.82 | pEC50 [18]: 5.72

CCOc1ccc2cc(-c3nn(CC4CCN(C)CC4)c4ncnc(N)c34)ccc2c1
pEC50 [19]: 7.33 | pEC50 [11]: 5.10

CN1CCC(c2cc(-c3ccncc3)c(-c3ccc(F)cc3)[nH]2)CC1
pIC50 [20]: 5.89 | pIC50 [21]: 8.46 | pIC50 [8]: 6.31 | pIC50 [22]: 6.31

CCOc1ccc2cc(-c3nn(CC4CCNCC4)c4ncnc(N)c34)ccc2c1
pEC50 [19]: 7.46 | pEC50 [11]: 5.70
